Results taken from patent publication US7138361B2, “Herbicidal heterocycles” (E. I. du Pont de Nemours and Company, priority 2000, dated 2006).

Assays:
Format in all cases: in vivo
[1] = system: Surinam grass (Brachiaria decumbens); test: Test B postemergence; details: 13 to 15 days
Outline: (§1)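 Seeds were planted and sprayed preemergence with test chemical in a non-phytotoxic solvent mixture containing surfactant; postemergence plants (2 to 18 cm, 1- to 4-leaf stage) received the same formulation. Greenhouse hold 13 to 15 days, then visual rating versus untreated controls on a 0–100 scale (0 no effect, 100 complete control).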

[2] = system: barnyardgrass (Echinochloa crus-galli); test: Test B postemergence; details: 13 to 15 days
Outline: as §1

[3] = system: blackgrass (Alopecurus myosuroides); test: Test B postemergence; details: 13 to 15 days
Outline: as §1

[4] = system: cocklebur (Xanthium strumarium); test: Test B postemergence; details: 13 to 15 days
Outline: as §1

corn (Zea mays) [5] = test: Test B postemergence; details: 13 to 15 days
Outline: as §1

[6] = system: crabgrass (Digitaria sanguinalis); test: Test B postemergence; details: 13 to 15 days
Outline: as §1

[7] = system: giant foxtail (Setaria faberii); test: Test B postemergence; details: 13 to 15 days
Outline: as §1

[8] = system: lambsquarters (Chenopodium album); test: Test B postemergence; details: 13 to 15 days
Outline: as §1

[9] = system: morning glory (Ipomoea hederacea); test: Test B postemergence; details: 13 to 15 days
Outline: as §1

[10] = system: pigweed (Amaranthus retroflexus); test: Test B postemergence; details: 13 to 15 days
Outline: as §1

[11] = system: velvetleaf (Abutilon theophrasti); test: Test B postemergence; details: 13 to 15 days
Outline: as §1

[12] = system: wheat (Triticum aestivum); test: Test B postemergence; details: 13 to 15 days
Outline: as §1

wild oat (Avena fatua) = test: Test B postemergence; details: 13 to 15 days
Outline: as §1

[13] = system: Surinam grass (Brachiaria decumbens); test: Test B preemergence
Outline: as §1

[14] = system: barnyardgrass (Echinochloa crus-galli); test: Test B preemergence
Outline: as §1

[15] = system: cocklebur (Xanthium strumarium); test: Test B preemergence
Outline: as §1

corn (Zea mays) [16] = test: Test B preemergence
Outline: as §1

[17] = system: crabgrass (Digitaria sanguinalis); test: Test B preemergence
Outline: as §1

[18] = system: giant foxtail (Setaria faberii); test: Test B preemergence
Outline: as §1

[19] = system: lambsquarters (Chenopodium album); test: Test B preemergence
Outline: as §1

[20] = system: morning glory (Ipomoea hederacea); test: Test B preemergence
Outline: as §1

[21] = system: pigweed (Amaranthus retroflexus); test: Test B preemergence
Outline: as §1

rice (Oryza saliva) = test: Test B preemergence
Outline: as §1

[22] = system: velvetleaf (Abutilon theophrasti); test: Test B preemergence
Outline: as §1

Nightshade = test: Test C preemergence; details: Rate 500 g/ha, visual evaluation after 12 to 14 days
Sunflower = test: Test C preemergence; details: scale 0 to 100, 0 no effect, 100 complete control
[23] = Rate 125 g/ha, scale 0 (no effect) to 100 (complete control)
[24] = Rate 500 g/ha, scale 0 to 100, 0 is no effect, 100 is complete control
[25] = Preemergence, Rate 500 g/ha, scale 0 to 100, 0 no effect, 100 complete control
[26] = preemergence, Rate 125 g/ha, scale of 0 to 100 where 0 is no effect and 100 is complete control, 13 to 15 days

CCC(C)c1ccn(C2CCN(c3ccc(C)c(OC)c3)C2=O)n1 (centres unmarked) [Compound 80]
Plant response rating, Surinam grass [1, 23]: 0
Plant response rating, Surinam grass [1, 24]: 0
Plant response rating, Barnyardgrass [2, 23]: 0
Plant response rating, Barnyardgrass [2, 24]: 10
Plant response rating, Blackgrass [3, 23]: 0
Plant response rating, Blackgrass [3, 24]: 0
Plant response rating, Cocklebur [4, 23]: 70
Plant response rating, Cocklebur [4, 24]: 80
Plant response rating, Corn (corn (Zea mays) [5]; [23]): 0
Plant response rating, Corn (corn (Zea mays) [5]; [24]): 0
Plant response rating, Crabgrass [6, 23]: 0
Plant response rating, Crabgrass [6, 24]: 40
Plant response rating, Foxtail, Giant [7, 23]: 0
Plant response rating, Foxtail, Giant [7, 24]: 0
Plant response rating, Lambsquarters [8, 23]: 10
Plant response rating, Lambsquarters [8, 24]: 90
Plant response rating, Morningglory [9, 23]: 40
Plant response rating, Morningglory [9, 24]: 90
Plant response rating, Pigweed [10, 23]: 70
Plant response rating, Pigweed [10, 24]: 80
Plant response rating, Velvetleaf [11, 23]: 40
Plant response rating, Velvetleaf [11, 24]: 70
Plant response rating, Wheat [12, 23]: 0
Plant response rating, Wheat [12, 24]: 0
Plant response rating, Wild Oat (wild oat (Avena fatua); [23]): 0
Plant response rating, Wild Oat (wild oat (Avena fatua); [24]): 0
Plant response rating, Surinam grass [13, 25]: 90
Plant response rating, Surinam grass [13, 26]: 80
Plant response rating, Barnyardgrass [14, 25]: 100
Plant response rating, Barnyardgrass [14, 26]: 0
Plant response rating, Cocklebur [15, 25]: 0
Plant response rating, Cocklebur [15, 26]: 0
Plant response rating, Corn (corn (Zea mays) [16]; [25]): 20
Plant response rating, Corn (corn (Zea mays) [16]; [26]): 0
Plant response rating, Crabgrass [17, 25]: 100
Plant response rating, Crabgrass [17, 26]: 100
Plant response rating, Foxtail, Giant [18, 25]: 100
Plant response rating, Foxtail, Giant [18, 26]: 100
Plant response rating, Lambsquarters [19, 25]: 100
Plant response rating, Lambsquarters [19, 26]: 100
Plant response rating, Morningglory [20, 25]: 100
Plant response rating, Morningglory [20, 26]: 60
Plant response rating, Pigweed [21, 25]: 100
Plant response rating, Pigweed [21, 26]: 100
Plant response rating, Rice (rice (Oryza saliva); [25]): 90
Plant response rating, Rice (rice (Oryza saliva); [26]): 60
Plant response rating, Velvetleaf [22, 25]: 70
Plant response rating, Velvetleaf [22, 26]: 0
Plant response rating (0 to 100), Nightshade (Nightshade): 100
Plant response rating, Sunflower (Sunflower; Rate 250 g/ha): 60

CC1(c2ccn(C3SCN(c4cccc(OC(F)(F)F)c4)C3=O)n2)CC1 (centres unmarked) [Compound 63]
Plant response rating, Surinam grass [1, 23]: 0
Plant response rating, Surinam grass [1, 24]: 0
Plant response rating, Barnyardgrass [2, 23]: 0
Plant response rating, Barnyardgrass [2, 24]: 60
Plant response rating, Blackgrass [3, 23]: 0
Plant response rating, Blackgrass [3, 24]: 0
Plant response rating, Cocklebur [4, 23]: 0
Plant response rating, Cocklebur [4, 24]: 50
Plant response rating, Corn (corn (Zea mays) [5]; [23]): 0
Plant response rating, Corn (corn (Zea mays) [5]; [24]): 0
Plant response rating, Crabgrass [6, 23]: 0
Plant response rating, Crabgrass [6, 24]: 60
Plant response rating, Foxtail, Giant [7, 23]: 0
Plant response rating, Foxtail, Giant [7, 24]: 50
Plant response rating, Lambsquarters [8, 23]: 60
Plant response rating, Lambsquarters [8, 24]: 80
Plant response rating, Morningglory [9, 23]: 0
Plant response rating, Morningglory [9, 24]: 40
Plant response rating, Pigweed [10, 23]: 50
Plant response rating, Pigweed [10, 24]: 70
Plant response rating, Velvetleaf [11, 23]: 0
Plant response rating, Velvetleaf [11, 24]: 50
Plant response rating, Wheat [12, 23]: 0
Plant response rating, Wheat [12, 24]: 0
Plant response rating, Wild Oat (wild oat (Avena fatua); [23]): 0
Plant response rating, Wild Oat (wild oat (Avena fatua); [24]): 0
Plant response rating, Surinam grass [13, 25]: 30
Plant response rating, Surinam grass [13, 26]: 0
Plant response rating, Barnyardgrass [14, 25]: 90
Plant response rating, Barnyardgrass [14, 26]: 50
Plant response rating, Cocklebur [15, 25]: 0
Plant response rating, Cocklebur [15, 26]: 0
Plant response rating, Corn (corn (Zea mays) [16]; [25]): 0
Plant response rating, Corn (corn (Zea mays) [16]; [26]): 0
Plant response rating, Crabgrass [17, 25]: 100
Plant response rating, Crabgrass [17, 26]: 0
Plant response rating, Foxtail, Giant [18, 25]: 90
Plant response rating, Foxtail, Giant [18, 26]: 50
Plant response rating, Lambsquarters [19, 25]: 100
Plant response rating, Lambsquarters [19, 26]: 100
Plant response rating, Morningglory [20, 25]: 0
Plant response rating, Morningglory [20, 26]: 0
Plant response rating, Pigweed [21, 25]: 100
Plant response rating, Pigweed [21, 26]: 100
Plant response rating, Rice (rice (Oryza saliva); [25]): 0
Plant response rating, Rice (rice (Oryza saliva); [26]): 0
Plant response rating, Velvetleaf [22, 25]: 0
Plant response rating, Velvetleaf [22, 26]: 0
Plant response rating (0 to 100), Nightshade (Nightshade): 100
Plant response rating, Sunflower (Sunflower; Rate 125 g/ha): 0
Plant response rating, Sunflower (Sunflower; Rate 250 g/ha): 40
